Source: patent publication US4550118A, “Heterocyclic compounds” (Ikeda Mohando Co., Ltd., priority 1982, dated 1985)
Each block holds one molecule with its values, some of them ahead of it.

What was measured:
[1] = target: T1, histamine H2 receptor in atria (Cavia porcellus, UniProt P47747); assay: Histamine H2 receptor inhibition effect by isolated guinea pig right atrium preparation (negative chronotropic effect); assay type: cell-based, Male Hartley Guinea Pig; conditions: 5×10^-6 mol sample 3 minutes prior to histamine, mean of five, read-out: inhibitory effect of histamine H2 receptor in atria (pA2 value) (converted)
T1 construct: right atrium was isolated; from tissue; host or cells: isolated right atrium of male Hartley guinea pig
Method: (B) Measurement of Histamine H2 Receptor Inhibition Effect by Isolated Guinea Pig Right Atrium Preparation
Male Hartley Guinea Pig weighing around 400 g was sacrified by decapitation, and right atrium was isolated. The right atrium was suspended in an organ bath (50 ml) containing modified Ringer solution. Under application of a tensile load of 1 g, the heart rate was recorded by means of a polygraph. Histamine was applied cumulatively from 1×10^-7 mol to 3×10^-4 mol and a cumulative dosage response curve was drawn. Then, 5×10^-6 mol of the sample was administered 3 minutes prios to histamine application. The negative logarithmic value (pA2) of the specimen molarity required for shifting the curve to the right to double concentration was calculated.

[2] = tested on: acid secretion in pylorus-ligated rats; assay: Anti-secretory effect (histamine-stimulated gastric acid secretion) in pylorus-ligated rat; assay type: in vivo, male wistar rats; conditions: Rattus norvegicus, sc, 3 h; 2 mg/kg s.c., 30 min before histamine 3 mg/kg s.c.; n=5; * significant at 5%, ** at 1% vs control; read-out: inhibitory effect of acid secretion (%) at 2 mg/kg s.c.
Method: (A) Anti-secretory Effect in Pylorus-ligated Rat
After 24 hr fasting, male wistar rats weighing about 160 g were anesthetized by intraperitoreal injection of urethans 1.2 g/kg. Then, after ligating the pylorus and the esophagus, the proventriculus was incised and a double polyethylene cannula was inserted. The gastric wall was washed out with 5 ml of physiological saline every 30 minutes and the amount of acid contained in the saline after washing was measured by titration. After measuring the basal acid secretion of the pylorus ligated rats three times, the compounds of the invention, 2 mg/kg, were administered subcutaneously and, 30 minutes thereafter, histamine 3 mg/kg, was administered also subcutaneously. Then, the amounts of acid secretion were measured for 3 hours. […] Then, an inhibition rate was calculated in accordance with the following formula, in relation to the increment values measured for the control group. [formula]
One group included five examples.

gastric mucus secretion = assay: Effect on gastric mucus secretion in rats (alcian blue binding); assay type: in vivo, Wistar male rats; conditions: 10 mg/kg × 2/day orally for 7 days, * significant at 5%, ** at 1%; for Alcian blue binding: 7 rats; for % Change (Alcian blue binding): vs control (0.5% CMC)
Method: The test compounds were administered orally to Wistar male rats weighing from 160 to 180 g so as to investigate the effect on gastric mucus secretion. The amount of mucus was determined using alcian blue color specifically bonding with acid mucosaccharides, and was expressed by the amount of color bonding with a unit weight (OD units/g tissue). The test compounds were administered at a dosage of 10 mg/kg twice a day for 7 days, and the rats were sacrificed one hour after the final administration in the morning on the 8th day by cervical dislocation. After laparatomy, the stomach was removed. After removal of the forestomach, an incision was made along the greater curvatura. The stomach was lightly washed with a 0.25M sucrose solution cooled with ice. The weight was determined after absorption of water with a filter paper.
Then, the stomach was exposed for 1.5 hrs in 10 ml of 0.25M sucrose solution containing 0.1% alcian blue 8 GX for staining. Then, the stained stomach was washed with 10 ml of a 0.25M sucrose for 15 min, being dipped in 15 ml of a 0.5M MgCl2 for 2 hrs so as to elute alcian blue combined with the mucus. Finally, 10 ml of ethyl ether was added, and the mixture was shaken vigorously. The floating substances were removed, and the aqueous layer was quantified by measuring the absorption at 605 nm.
The above procedures were carried out at room temperature.

[3] = Acute oral toxicity test in mice (LD50, Litchfield-Wilcoxon); conditions: mouse, in vivo
Method: Male dd-mice were divided into groups of 5 and fasted for 8 hours. The test compounds were administered orally to the mice weighing from 19.7 g. to 22.0 g. The mice were observed survival or death as well as the general symptoms over 7 days after the administration of the compounds. The value of LD50 for each compound was estimated from the mortality observed on the basis of the Litchfield-Wilcoxon method.
In a similar test, the test compound of example 27, 35, 66, 84, 97, 104, 118, 125 or 129 was administered orally to the mice at a dose of 1500 mg/kg.

T1 sequence (P47747 whole entry): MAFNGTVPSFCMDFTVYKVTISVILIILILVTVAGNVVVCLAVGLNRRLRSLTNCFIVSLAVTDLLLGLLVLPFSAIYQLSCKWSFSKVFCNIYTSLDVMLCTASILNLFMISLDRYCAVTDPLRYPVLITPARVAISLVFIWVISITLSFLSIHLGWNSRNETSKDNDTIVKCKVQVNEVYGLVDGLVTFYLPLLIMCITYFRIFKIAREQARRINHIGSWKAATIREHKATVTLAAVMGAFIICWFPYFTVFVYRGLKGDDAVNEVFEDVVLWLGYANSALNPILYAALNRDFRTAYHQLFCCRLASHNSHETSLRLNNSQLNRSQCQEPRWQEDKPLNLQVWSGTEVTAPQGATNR

Kb [1]: 1780 nM
Compound: CN(C)Cc1cccc(Cc2cnc(NCCSCc3ccc4[nH]c(CN(C)C)nc4c3)[nH]c2=O)c1 [Example 78, 2-[2-<5-(2-dimethylaminomethylbenzimidazolyl)methylthio>ethylamino]-5-(3-dimethylaminomethylbenzyl)-4-pyrimidone]
inhibition in vivo at 2 mg/kg [2]: 107%
Alcian blue binding (gastric mucus secretion): 0.45 ± 0.04 OD units/g tissue
% Change (Alcian blue binding) (gastric mucus secretion): +24.6%

Compound: CNC(=NC#N)NCCCOc1ccc2[nH]c(NC(=N)N)nc2c1 [Example 8, N-cyano-N'-methyl-N"-[3-<5-(2-guanidinobenzimidazolyl)oxypropyl] guanidine]
Alcian blue binding (gastric mucus secretion): 0.55 ± 0.04 OD units/g tissue
% Change (Alcian blue binding) (gastric mucus secretion): +52.5%

Compound: CN(C)Cc1nc2cc(CSCCNc3n[s+]([O-])nc3N)ccc2[nH]1 (stereo not shown) [Example 103, 3-[2-<5-(2-dimethylaminomethylbenzimidazolyl)methylthio>ethyl]amino-4-amino-1,2,5-thiadiazol-1-oxide]
Kb [1]: 575 nM
inhibition in vivo at 2 mg/kg [2]: 98%
Alcian blue binding (gastric mucus secretion): 0.31 ± 0.02 OD units/g tissue
% Change (Alcian blue binding) (gastric mucus secretion): +14.8%
LD50 at 168 h ([3]; oral, groups of 5, 7 days observation): > 4000 mg/kg

Compound: CN(C)Cc1nc2cc(CSCCNc3nc(N)nn3C)ccc2[nH]1 [Example 97, 1-methyl-5-[2-<5-(2-dimethylaminomethylbenzimidazolyl)-methylthio>ethyl]-1H-1,2,4-triazole-3,5-diamine]
Kb [1]: 891 nM
inhibition in vivo at 2 mg/kg [2]: 76%
Alcian blue binding (gastric mucus secretion): 0.49 ± 0.02 OD units/g tissue
% Change (Alcian blue binding) (gastric mucus secretion): +37.4%
LD50 at 168 h ([3]; similar test, oral dose of 1500 mg/kg): > 1500 mg/kg
